Measurements: publication PMC9138991, “Effect of Trimethine Cyanine Dye- and Folate-Conjugation on the In Vitro Biological Activity of Proapoptotic Peptides” (Biomolecules, 2022)
Where a SMILES comes first, the peptide text is derived from it. Side-chain parts run from the residue outwards. [ ]: non-standard residue; d: D form. The star is where a group is joined. X1 = CN1/C(=C\C=C\C2=[N+](CCCCCC(=O)*)c3ccccc3C2(C)C)C(C)(C)c2ccccc21; Pteroyl = Nc1nc2ncc(CNc3ccc(C(=O)*)cc3)nc2c(=O)[nH]1; Cha = N[C@@H](CC1CCCCC1)C(=O)O; dCha = N[C@H](CC1CCCCC1)C(=O)O

Experiments:
Type in all cases: cell-based, human
KB cells = test: Cell viability assay (CellTiter-Blue), KB cells; details: 7 × 10^3 cells per well, folic acid-depleted RPMI-1640 + 10% FBS, 1% DMSO, 24 h at 37 °C, then CellTiter-Blue 4 h, three biological replicates fitted in Origin, standard error in brackets
Method: (§1) KB and MCF7 cells were kindly gifted by Prof. Arwyn T. Jones (Cardiff University), HEK293 cells were purchased from Public Health England, and SK-OV-3 cells were purchased from National Collection of Authenticated Cell Cultures (https://cell-bank.org.cn/). Cells were routinely tested for mycoplasma infection. KB and SK-OV-3 cells were maintained in T75 flasks at 37 °C in a 5% CO2 atmosphere in folic acid-depleted Roswell Park Memorial Institute (RPMI)-1640 medium supplemented with 10% (v/v) fetal bovine serum (FBS). MCF7 and HEK293 cells were maintained in T75 flasks at 37 °C in a 5% CO2 atmosphere in Dulbecco’s Modified Eagle’s medium (DMEM) supplemented with 10% (v/v) FBS. Cells were maintained at a sub-confluent monolayer and split at 80–85% confluency. For splitting, cells were washed with PBS, trypsinized in 1 mL of trypsin, and 200 µL of the 1000 µL trypsin cell suspension was re-suspended in 12 mL fresh DMEM containing 10% (v/v) FBS in a new T75 flask. KB and SK-OV-3 cells were used for biological experiments after being maintained for at least 10 days in folic acid-depleted RPMI-1640 medium.
(§2) SK-OV-3, MCF7, and HEK293 cells were seeded at a density of 2 × 10^4 cells per well in a Nunc™ MicroWell™ 96-well plate and grown at 37 °C in a 5% CO2 atmosphere in DMEM supplemented with 10% (v/v) FBS for 24 h. KB cells were seeded at a density of 7 × 10^3 cells per well in a 96-well plate and grown at 37 °C in a 5% CO2 atmosphere in folic acid-depleted RPMI-1640 medium supplemented with 10% (v/v) FBS for 24 h. Stock solutions of compounds 2–6 and 11–13 were obtained by dissolving the compounds in sterile deionized water. Compounds 1, and 7–10 were dissolved in pure DMSO. The stock solutions were diluted into the proper medium (according to the cell line tested) supplemented with 10% FBS to the appropriate concentration, and cells in each well were incubated with 100 µL of the solution. The solutions in each well were then adjusted to a concentration of 1% (v/v) DMSO. After 24 h at 37 °C, 20 µL of CellTiter-Blue™ was added to each well. The plate was incubated for another 4 h at 37 °C before analysis on a Perkin Elmer Victor X plate reader (excitation 531 nm; emission 595 nm). Each data point was calculated from a minimum of nine values resulting from three biological replicates (i.e., cells split from three different passages); each biological replicate is calculated from three technical replicates (i.e., cells split from the same passage). Value from media-only with CellTiter-Blue™ was set at 0% viability. This value was then subtracted from the values from cell-only (i.e., non-treated) wells with CellTiter-Blue™ in each biological replicate and set as 100% viability. For treatments of Cy3-containing compounds, blanks were generated with cell-free wells containing the compounds incubated for 24 h before addition of CellTiter-Blue™. The fluorescent reading for these wells was deducted from the treatment readings. Dose-response fitting curves were generated using Origin, version 2019b, OriginLab Corporation, Northampton, MA, USA (Figures S21–S24, Supplementary Materials).
(§3) Comparison of cytotoxicity fitting curves was achieved by applying the extra sum-of-squares F test, performed using GraphPad Prism version 9 for Windows, GraphPad Software, La Jolla, California, USA (https://www.graphpad.com/). […] Statistical analysis on the flow cytometry data was achieved by applying the unpaired two-tailed t-test test, performed using GraphPad Prism version 9 for Windows, GraphPad Software, La Jolla California USA, USA (https://www.graphpad.com/).
(§4) Cytotoxicity of 1–13 was evaluated using the CellTiter-Blue assay on KB, MCF7, SK-OV-3, and HEK293 cells. KB cells are derived from human cervical cancer, while SK-OV-3 cells are derived from human ovarian cancer. […] This feature is of particular relevance in anticancer applications, as it can be exploited for selective targeting and delivery. […]

SK-OV-3 cells = test: Cell viability assay (CellTiter-Blue), SK-OV-3 cells; details: 2 × 10^4 cells per well, medium + 10% FBS, 1% DMSO, 24 h at 37 °C, then CellTiter-Blue 4 h, three biological replicates fitted in Origin, standard error in brackets
Method: as §1, §2, §3, §4

MCF7 cells = test: Cell viability assay (CellTiter-Blue), MCF7 cells; details: for EC50: MCF7 cells, 2 × 10^4 cells per well, DMEM + 10% FBS, 1% DMSO, 24 h at 37 °C, then CellTiter-Blue 4 h, three biological replicates fitted in Origin, standard error in brackets
Method: as §1, §2, §3, §4

HEK293 cells = test: Cell viability assay (CellTiter-Blue), HEK293 cells; details: 2 × 10^4 cells per well, DMEM + 10% FBS, 1% DMSO, 24 h at 37 °C, then CellTiter-Blue 4 h, three biological replicates fitted in Origin, standard error in brackets
Method: as §1, §2, §3, §4

[1] = test system: KB, MCF7, SK-OV-3, and HEK293 cells; test: Cell viability assay (CellTiter-Blue), statements over all tested cell lines; details: for EC50 / Potency (cytotoxicity) in the tested cell lines, in words: KB, SK-OV-3, MCF7 and HEK293 cells, CellTiter-Blue; for EC50: 24 h; for Potency (cytotoxicity) in the tested cell lines, in words: extra sum-of-squares F test
Method: as §2, §3
Cytotoxicity of 1–13 was evaluated using the CellTiter-Blue assay on KB, MCF7, SK-OV-3, and HEK293 cells. KB cells are derived from human cervical cancer, while SK-OV-3 cells are derived from human ovarian cancer. […] This feature is of particular relevance in anticancer applications, as it can be exploited for selective targeting and delivery. MCF7 is a cell line derived from human breast cancer with low levels of folate receptor α [27]. Therefore, it can serve as the negative control for folate receptor α mediated tumor-targeted drug delivery systems. HEK293 is a non-cancer cell line and was chosen to evaluate the specificity of the tested compounds toward cancer cells.

[2] = test system: mitochondria of SK-OV-3 cells; test: Confocal microscopy, colocalisation with MitoTracker Green FM, SK-OV-3 cells; details: 10 µM conjugate, 10 min at 37 °C
Method: (§5) SK-OV-3 and MCF7 were seeded at a density of 1 × 10^6 cells per well in glass-bottom culture dishes and grown at 37 °C in a 5% CO2 atmosphere in medium supplemented with 10% (v/v) FBS for 24 h. Cells were washed once with the RPMI-1640 medium supplemented with 10% (v/v) FBS before staining. Compounds 1, 5–10 were diluted into the RPMI-1640 medium supplemented with 10% (v/v) FBS to 10 μM and then added to the culture dishes, respectively. After 10-min incubation at 37 °C, cells were washed with RPMI-1640 medium supplemented with 10% (v/v) FBS. Cells were then treated with 50 nM MitoTracker Green FM and 10 μg/mL Hoechst33258 pre-formulated with RPMI-1640 medium supplemented with 10% (v/v) FBS and then incubated for another 10 min at 37 °C before analysis on ZEISS LSM 900 with Airyscan 2. The results were analyzed using Image J software (Figure 3 and Figures S4–S7 in Supplementary Materials).
(§6) Figure 3 Confocal microscopy images of SK-OV-3 and MCF7 cells treated with Cy3-containing conjugates. Cells were treated with 10 µM of the indicated conjugate for 10 min at 37 °C, washed, stained with 50 nM MitoTracker Green FM and 10 μg/mL Hoechst33258 for 10 min at 37 °C, washed, and imaged at 63X. Pearson’s correlation coefficients of MitoTracker Green FM and Cy3 fluorescence for compounds 1, 5, 6, 7, 8, 9, and 10 in SK-OV-3 and MCF cells are 0.75/0.64, 0.73/0.81, 0.91/0.61, 0.78/0.63, 0.85/0.69, 0.43/0.82, and 0.78/0.60, respectively. Excitation wavelengths for Hoechst33258, MitoTracker Green FM and Cy3 were set as 405, 488, and 561 nm, respectively. Scale bars denote 25 μm. Additional images, including the results of Hoechst33258 staining, are shown in Figure S4 (SK-OV-3 at 20X), Figure S5 (SK-OV-3 at 63X), Figure S6 (MCF7 at 20X) and Figure S7 (MCF7 at 63X), Supplementary Materials.

[3] = test system: mitochondria of MCF7 cells; test: Confocal microscopy, colocalisation with MitoTracker Green FM, MCF7 cells; details: 10 µM conjugate, 10 min at 37 °C
Method: as §5, §6

Row | Structure (SMILES) | EC50 (KB cells) | EC50 (SK-OV-3 cells) | EC50 (MCF7 cells) | EC50 (HEK293 cells) | EC50 [1] | Potency (cytotoxicity) in the tested cell lines, in words [1] | EC50 in MCF7 cells, times higher than in the other tested cell lines (MCF7 cells; MCF7 versus KB, SK-OV-3 and HEK293) | Pearson's correlation coefficient of MitoTracker Green and Cy3 fluorescence ([2]; imaged at 20X) | Pearson's correlation coefficient of MitoTracker Green FM and Cy3 fluorescence ([2]; imaged at 63X) | Pearson's correlation coefficient of MitoTracker Green and Cy3 fluorescence ([3]; imaged at 20X) | Pearson's correlation coefficient of MitoTracker Green FM and Cy3 fluorescence ([3]; imaged at 63X) | Selectivity of cytotoxicity between cell lines, in words ([1]; folate receptor α-high KB and SK-OV-3 versus MCF7 and HEK293)
1 | CC(C)C[C@H](NC(=O)[C@H](CCCCN)NC(=O)[C@H](C)NC(=O)[C@H](CC(C)C)NC(=O)[C@H](CCCCN)NC(=O)[C@H](CCCCN)NC(=O)[C@H](C)NC(=O)[C@H](CC(C)C)NC(=O)[C@H](CCCCN)NC(=O)[C@H](C)NC(=O)[C@H](CC(C)C)NC(=O)[C@@H](N)CCCCN)C(=O)N[C@@H](C)C(=O)N[C@@H](CCCCN)C(N)=O [Compound 2, reference compound] | > 400 µM | > 400 µM | > 400 µM | > 400 µM | > 300 µM | least potent amongst the tested compounds | – | – | – | – | – | –
2 | CC(C)C[C@@H](NC(=O)[C@H](N)CCCCN)C(=O)N[C@H](C)C(=O)N[C@H](CCCCN)C(=O)N[C@H](CC(C)C)C(=O)N[C@H](C)C(=O)N[C@H](CCCCN)C(=O)N[C@H](CCCCN)C(=O)N[C@H](CC(C)C)C(=O)N[C@H](C)C(=O)N[C@H](CCCCN)C(=O)N[C@H](CC(C)C)C(=O)N[C@H](C)C(=O)N[C@H](CCCCN)C(N)=O [Compound 3, reference compound] | 331 µM | > 400 µM | > 400 µM | > 400 µM | > 300 µM | least potent amongst the tested compounds | – | – | – | – | – | –
3 | C[C@@H](NC(=O)[C@H](CC1CCCCC1)NC(=O)[C@@H](CCCCN)NC(=O)[C@@H](C)NC(=O)[C@@H](CC1CCCCC1)NC(=O)[C@H](N)CCCCN)C(=O)N[C@H](CCCCN)C(=O)N[C@H](CCCCN)C(=O)N[C@@H](CC1CCCCC1)C(=O)N[C@H](C)C(=O)N[C@H](CCCCN)C(=O)N[C@H](CC1CCCCC1)C(=O)N[C@H](C)C(=O)N[C@H](CCCCN)C(N)=O [Compound 4, reference compound] (HELM PEPTIDE1{[dK].[O=C([C@@H](CC1CCCCC1)N[*:1])[*:2]].[dA].[dK].[Cha].[dA].[dK].[dK].[Cha].[dA].[dK].[O=C([C@@H](CC1CCCCC1)N[*:1])[*:2]].[dA].[dK].[am]}$$$$V2.0) | 6.5 µM | 11.6 µM | 50.9 µM | 15.6 µM | – | good potency in all tested cell lines | 3-8 times | – | – | – | – | –
4 | C[C@@H](NC(=O)[C@H](CC1CCCCC1)NC(=O)[C@@H](CCCCN)NC(=O)[C@@H](C)NC(=O)[C@@H](CC1CCCCC1)NC(=O)[C@@H](CCCCN)NC(=O)[C@H](CCCCNC(=O)[C@H](CCC(=O)O)NC(=O)c1ccc(NCc2cnc3nc(N)nc(O)c3n2)cc1)NC(=O)CCCCC[N+]1=C(/C=C/C=C2\N(C)c3ccccc3C2(C)C)C(C)(C)c2ccccc21)C(=O)N[C@H](CCCCN)C(=O)N[C@H](CCCCN)C(=O)N[C@@H](CC1CCCCC1)C(=O)N[C@H](C)C(=O)N[C@H](CCCCN)C(=O)N[C@H](CC1CCCCC1)C(=O)N[C@H](C)C(=O)N[C@H](CCCCN)C(N)=O [Compound 10] (X1-K([Glu-Pteroyl])[dK][dCha][dA][dK][Cha][dA][dK][dK][Cha][dA][dK][dCha][dA][dK]-NH2) | 3.4 µM | 6 µM | 6.9 µM | 6.8 µM | – | – | – | 0.79 | 0.78 | 0.68 | 0.60 | –
5 | CC(=O)N[C@@H](CCCCNC(=O)[C@H](CCC(=O)O)NC(=O)c1ccc(NCc2cnc3nc(N)nc(O)c3n2)cc1)C(=O)N[C@@H](CCCCN)C(=O)N[C@@H](CC(C)C)C(=O)N[C@@H](C)C(=O)N[C@@H](CCCCN)C(=O)N[C@@H](CC(C)C)C(=O)N[C@@H](C)C(=O)N[C@@H](CCCCN)C(=O)N[C@@H](CCCCN)C(=O)N[C@@H](CC(C)C)C(=O)N[C@@H](C)C(=O)N[C@@H](CCCCN)C(=O)N[C@@H](CC(C)C)C(=O)N[C@@H](C)C(=O)N[C@@H](CCCCN)C(N)=O [Compound 11] | 242 µM | > 400 µM | > 400 µM | > 400 µM | – | – | – | – | – | – | – | enhanced toxicity in KB but not in SK-OV-3 cells when compared to MCF7 and HEK293 cells
